This is an account of results in patent US20110028539A1, “Biologically active taxane analogs and methods of treatment” (Tapestry Pharmaceuticals, Inc., priority 2007, published 2011).

In general, EC50 refers to the concentration needed to bring the measured effect to its halfway point. In general, inhibition refers to the percentage by which the read-out fell short of the control. For orientation: IC50 means the concentration at which inhibition is half-maximal. Low values mean greater potency in that assay, high ones weaker potency in that assay.

In test [1] the test system is bovine microtubule protein (tubulin plus MAP). Nature of the test: In vitro ED50 MT polymerization study (DAPI fluorescence tubulin assay). In kind it is biochemical. The conditions noted are these: for ED50 Compound/ED50 Paclitaxel: ratio of tubulin polymerization ED50 to that of paclitaxel; for EC50: tubulin polymerization, 37° C., 30 minutes, maximum assembly = 25 μM paclitaxel. As to the method: In this tubulin binding assay, microtubule protein (MTP) is used as a substrate. The assay contains bovine tubulin plus microtubule associated proteins (MAP). MTP is polymerized into microtubules in the presence of DAPI (4′,6′-diamidino-2-phenylindole), a fluorescent compound. DAPI binds to tubulin; when microtubules are formed and there is an enhancement of fluorescence. The microtubule formation is measured as a function of time, using a fluorescence plate reader. […] The method used is based on the procedure published by Donna M. Barron, et al, “Fluorescence-based high-throughput assay for antimicrotuble drugs” Analytical Biochemistry, 315: 49-56, 2003, which is incorporated by reference in its entirety. The excitation wavelength, in that assay, was set at 370 nm and the emission wavelength was set at 450 nm for the DAN experiments.
A Bio-Tek FL 600 microplate Fluorescence used to measure the relative level of fluorescence in the DAPI assay.
Assays were conducted in 96-well plates. Each well contained a total volume of 0.1 mL consisting of PEM buffer (0.1 M Pipes, 1 mM EGTA, 1 mM MgCl2, pH 6.9), 0.2 mg bovine microtubule protein, and 10 μg of DAPI. […] The final DMSO concentration was 4%. The plates were incubated at 37° C. for 30 minutes and read in a fluorescence plate reader using an excitation wavelength of 360 nm and an emission wavelength of 460 nm. Fluorescence values were corrected for the sample without compound.
Experiments were done twice in triplicate. Results were subsequently combined and fit to a non-linear regression program.

Test [2] concerns Breast Cancer MCF-7 NCI-AR. The experiment in a line: Inhibition of cell growth, breast cancer MCF-7 NCI-AR (MDR+, wild type tubulin). The format is cell-based. The conditions noted are these: Homo sapiens. From the text:
(§1) Of note is the top part of the molecule illustrated above, which may be seen to have a 9-keto structure and 10-β hydroxy or 10-β acetoxy stereochemistry. The present application provides novel taxane analogs having a stereochemistry at the C-9 and C-10 OH positions of the molecule.

The test system of test [3] is Ovarian Carcinoma 1A9PTX10. Nature of the test: Inhibition of cell growth, ovarian carcinoma 1A9PTX10 (MDR-, mutant tubulin). In kind it is cell-based. The conditions noted are these: Homo sapiens, 1A9/ptx-10.
Excerpt: as §1

Another test has as its system head/neck KB. Nature of the test: MTS proliferation assay, KB. The format is cell-based. The conditions noted are these: 48 to 72 hrs. How it is done: (§2) Day 1: Cells were plated in appropriate growth medium at 5×10^3 per well in 100 ul in 96 well tissue culture plates, Falcon, one for each drug to be tested. Col 1 was blank; it contained no cells, just medium. The plates were incubated overnight at 37° C., 5% CO2 to allow attachment,
(§3) Day 2: Added 120 ul growth medium in wells of 96-well “dilution plates” (one for each drug) and let sit in 37° C. incubator for about 1 hr.
(§4) Thawed DMSO drug stocks (usually at 10 mM). Each drug was diluted 6 ul into a tube with 3 ml growth medium, to 20 uM.
(§5) Aspirated medium from col 12 of a dilution plate; added 200-300 ul of 20 uM drug to wells of col 12. Made serial dilution down this 96-well plate: for a […] dilution pattern, moved 60 ul from col 12 to col 11, mixed 4-5 times (using 8 place multi-pipettor), moved 60 ul to col 10, etc. stopping at col 3.
(§6) Moved 100 ul of medium+drug from dilution plate to a cell plate, i.e. col 1 from drug plate (blank=no cells) to col 1 of cell plate, etc. up to col 12. Col 2 contained cells with no drug. Col 3 had the lowest concentration of drug (0.005 nM) and col 12 had the highest drug concentration (10 uM).
(§7) Day 4 or 5: Terminated the assay 48 to 72 hrs after drug addition. […] When the color turned dark in control wells (col 2), and was still light in col 12, the absorbance at 490 nm was read on a plate reader; the results were used to calculate IC50.

The nature of test [4]: Biological evaluation of separated isomers of Formula 48 (activity comparison). The following applies: separated diastereoisomer vs mixture.
Another test has as its system uterine MESSA/Dox (MDR+). The experiment in a line: MTS proliferation assay, MESSA/Dox (MDR+). The conditions noted are these: Homo sapiens, MES-SA, 48 to 72 hrs. The format is cell-based. How it is done:
as §2, §3, §4, §5, §6, §7
A general note: Formazan colour is commonly taken as a measure of viable cells.

The test system of the next test is breast MDA435s. Nature of the test: MTS proliferation assay, MDA435s. The format is cell-based. The following applies: 48 to 72 hrs. As to the method: as §2, §3, §4, §5, §6, §7
In a further test the test system is prostate PC-3. Nature of the test: MTS proliferation assay, PC-3. In kind it is cell-based. The following applies: prostate PC-3, MTS, 48 to 72 hrs. As to the method:
as §2, §3, §4, §5, §6, §7

The next test has as its system head/neck KBV (MDR+). Nature of the test: MTS proliferation assay, KBV (MDR+). In kind it is cell-based. The following applies: 48 to 72 hrs. How it is done:
as §2, §3, §4, §5, §6, §7

In another test the test system is colon HT29. The experiment in a line: MTS proliferation assay, HT29. In kind it is cell-based. The following applies: Homo sapiens, HT-29, 48 to 72 hrs. How it is done: as §2, §3, §4, §5, §6, §7
The subject of the next test is head/neck FADU. The experiment in a line: MTS proliferation assay, FADU. In kind it is cell-based. The following applies: Homo sapiens, 48 to 72 hrs. How it is done: as §2, §3, §4, §5, §6, §7
In a further test the test system is prostate DU145. The experiment in a line: MTS proliferation assay, DU145. The format is cell-based. The conditions noted are these: Homo sapiens, DU-145, 48 to 72 hrs. As to the method:
as §2, §3, §4, §5, §6, §7

Another test deals with uterine MESSA. The experiment in a line: MTS proliferation assay, MESSA. The format is cell-based. The following applies: Homo sapiens, MES-SA, 48 to 72 hrs. As to the method:
as §2, §3, §4, §5, §6, §7

A further test has as its system Neuroblastoma SKNAS. The experiment in a line: MTS proliferation assay, SKNAS. The format is cell-based. The conditions noted are these: Homo sapiens, SK-N-AS, 48 to 72 hrs. How it is done:
as §2, §3, §4, §5, §6, §7

The test system of the next test is Neuroblastoma SK-N-AS. Nature of the test: Inhibition of cell growth, neuroblastoma SK-N-AS. The conditions noted are these: Homo sapiens, concentration 0.1 ug/mL. In kind it is cell-based.
Excerpt: as §1

In test [5] the test system is Squamous Cell Carcinoma FADU. The experiment in a line: Inhibition of cell growth, squamous cell carcinoma FADU. The format is cell-based. The conditions noted are these: Homo sapiens, concentration 0.05 ug/mL.
Excerpt: as §1

With `CC(=O)O[C@@]12CO[C@@H]1C[C@H](O)[C@@]1(C)C(=O)[C@H](O)C3=C(C)[C@@H](OC(=O)[C@H](O)[C@@H](NC(=O)OC(C)(C)C)c4ccccc4)C[C@@](O)([C@@H](OC(=O)c4ccccc4)[C@H]21)C3(C)C` [Docetaxel], in [1], the “ED50 Compound/ED50 Paclitaxel” value is 1.07 and the EC50 was 3180 ± 450 nM.

`C/C(=C\c1csc(C)n1)[C@@H]1C[C@@H]2O[C@]2(C)CCC[C@H](C)[C@H](O)[C@@H](C)C(=O)C(C)(C)[C@@H](O)CC(=O)O1` [Epothilone B]: in test [1], the “ED50 Compound/ED50 Paclitaxel” value stood at 1.11 and the EC50 was determined as 3310 ± 510 nM.

For the molecule `C=CC1O[C@H]2C[C@H]3OC[C@@]3(OC(C)=O)[C@H]3[C@H](OC(=O)c4ccccc4)[C@]4(O)C[C@H](OC(=O)[C@H](O)[C@@H](NC(=O)c5ccccc5)c5ccccc5)C(C)=C([C@H](OC(C)=O)[C@H](O1)[C@]23C)C4(C)C` (some centres unmarked) [Formula 45], the inhibition at 0.5 µg/mL in test [2] (MCF7, concentration 0.5 ug/mL) amounted to 45%; in test [3] (1A9PTX10, concentration 0.5 ug/mL), 96%. Besides, the inhibition at 1 µg/mL in [2] (MCF7, concentration 1.0 ug/mL) was found to be 65%. This molecule had an inhibition at 2 µg/mL in test [2] (MCF7, concentration 2.0 ug/mL) of 94%. The molecule further yielded an inhibition at 0.25 µg/mL in [3] (1A9PTX10, concentration 0.25 ug/mL) of 93%.

As for `C=C[C@H]1O[C@H]2C[C@H]3OC[C@@]3(OC(C)=O)[C@H]3[C@H](OC(=O)c4ccccc4)[C@]4(O)C[C@H](OC(=O)[C@H](O)[C@H](CC(C)C)NC(=O)OC(C)(C)C)C(C)=C([C@H](OC(C)=O)[C@H](O1)[C@]23C)C4(C)C` [Formula S-31], the IC50 in the test with head/neck KB was 9.4 nM; in the test with uterine MESSA/Dox (MDR+), 44.8 nM; in the test on breast MDA435s, 10 nM; in the test on prostate PC-3, 0.03 nM; in the test with head/neck KBV (MDR+), 553 nM; with colon HT29, 0.006 nM. Also, the IC50 in the test with head/neck FADU was found to be 21 nM; in the test with prostate DU145, 60 nM; in the test with uterine MESSA, 2.9 nM; in the test with Neuroblastoma SKNAS, 11 nM. For the same molecule, the “activity compared with the isomeric mixture (Formula 48)” value in test [4] is on record as “significantly more active than the isomeric mixture”. Moreover, the “ED50 Compound/ED50 Paclitaxel” value in test [1] is 0.53. In addition, the EC50 in test [1] amounted to 1580 ± 460 nM.

For `CC(=O)O[C@H]1C(=O)[C@@]2(C)[C@H]([C@H](OC(=O)c3ccccc3)[C@]3(O)C[C@H](OC(=O)[C@H](O)[C@@H](NC(=O)c4ccccc4)c4ccccc4)C(C)=C1C3(C)C)[C@]1(OC(C)=O)CO[C@@H]1C[C@@H]2O` [Paclitaxel, reference compound], in the test on Neuroblastoma SK-N-AS, testing at 0.1 µg/mL gave an inhibition of 54%. Also, in test [2] (MCF7, concentration 40 ug/mL), testing at 40 µg/mL gave an inhibition of 55%. This molecule yielded an inhibition at 0.05 µg/mL in test [5] of 47%. This molecule also came in with an inhibition at 5 µg/mL in test [3] (1A9PTX10, concentration 5 ug/mL) of 55%.
